From patent CN115227715A, “一种用于治疗癌症的联合用药物和药物组合物” (priority 2021, dated 2022)

Tests used:
Cal-27 cells [1] = assay: CX-4945-induced vacuolization, phase-contrast microscopy (Experimental Example 1, Fig. 1a); assay type: cell-based; conditions: 20μM CX-4945, 12h
HSC-4 cells = assay: as above; assay type: cell-based; conditions: 20μM CX-4945, 12h
HSC-3 cells = assay: as above; assay type: cell-based; conditions: 40μM CX-4945, 12h
UM1 cells = assay: as above; assay type: cell-based; conditions: 40μM CX-4945, 12h
Cal-27 cells [2] = assay: Macropinocytosis marker Dextran AF488 uptake and organelle probe co-localization, confocal microscopy (Experimental Example 1, Fig. 1b-1e); assay type: cell-based
[3] = test system: cholangiocarcinoma cells (胆管癌细胞); conditions: cited from earlier work
[4] = test system: non-small cell lung cancer cells (非小细胞肺癌细胞); conditions: cited from earlier work
[5] = test system: colorectal cancer cells (结直肠癌细胞); conditions: cited from earlier work
CK2 = CK2 (Homo sapiens, UniProt P68400); conditions: cited from earlier work
Chain of CK2 (P68400 whole entry): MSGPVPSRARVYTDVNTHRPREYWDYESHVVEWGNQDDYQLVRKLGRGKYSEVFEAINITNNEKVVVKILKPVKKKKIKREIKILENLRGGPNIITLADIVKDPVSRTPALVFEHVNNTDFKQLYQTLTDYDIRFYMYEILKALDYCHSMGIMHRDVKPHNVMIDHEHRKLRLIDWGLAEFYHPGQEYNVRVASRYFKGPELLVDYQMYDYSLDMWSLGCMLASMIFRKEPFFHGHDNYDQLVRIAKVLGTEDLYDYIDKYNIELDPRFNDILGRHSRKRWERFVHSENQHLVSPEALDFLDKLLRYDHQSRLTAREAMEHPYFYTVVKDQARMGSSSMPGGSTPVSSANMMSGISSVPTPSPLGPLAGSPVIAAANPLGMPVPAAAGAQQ

## O=C(O)c1ccc2c(c1)nc(Nc1cccc(Cl)c1)c1ccncc12 [CX-4945]
Cal-27 cells [1]
  vacuole formation: 均产生了空泡
HSC-4 cells
  vacuole formation: 均产生了空泡
HSC-3 cells
  vacuole formation: 均产生了空泡
UM1 cells
  vacuole formation: 均产生了空泡
Cal-27 cells [2]; 10μM CX-4945, 0.5mg/mL Dextran AF488, 12h
  Dextran AF488 uptake in vacuoles: 大多数空泡内都摄入了大量的Dextran AF488,呈现Dextran AF488阳性
Cal-27 cells [2]; 10μM CX-4945, 0.5mg/mL Dextran AF488, ER-tracker, 12h
  co-localization of Dextran AF488-positive vacuoles with endoplasmic reticulum: 不与内质网共定位
Cal-27 cells [2]; 10μM CX-4945, 0.5mg/mL Dextran AF488, Lyso-tracker, 12h
  co-localization of Dextran AF488-positive vacuoles with lysosomes: 有一部分与溶酶体共定位
Cal-27 cells [2]; 10μM CX-4945, 0.5mg/mL Dextran AF488, Mito-tracker, 12h
  co-localization of Dextran AF488-positive vacuoles with mitochondria: 不与线粒体共定位
[3]
  induction of macropinocytosis: 可诱导巨胞饮的发生
[4]
  induction of macropinocytosis: 可诱导巨胞饮的发生
[5]
  induction of macropinocytosis: 可诱导巨胞饮的发生
CK2
  selectivity as CK2 inhibitor: 高度选择性
